{"source": "patent US20110300154A1", "about": "“TREATMENT OF AIRWAY HYPERREACTIVITY” (CHILDREN'S MEDICAL CENTER CORPORATION, priority 2007, published 2011)", "key": {"iNKT cells [1]": {"test_system": "iNKT cells", "assay": "AHR (lung resistance to methacholine) after nebulized α-GalCer challenge, cross-over design", "format": "in vivo, cynomolgus monkeys", "from_the_text": "(§1) Four monkeys were challenged with α-GalCer or vehicle using a cross-over design (approved by animal care and use committees at the Children's Hospital Boston and the Charles River Laboratory), which minimized the effects of genetic variation and the differing past histories in each of the outbred monkeys. […] Each adult cynomolgus monkey was anesthetized, intubated and challenged with nebulized α-GalCer or vehicle. For safety reasons and to avoid any possible toxic effects of α-GalCer that might cause AHR, a dose escalation approach was used, starting with a very low dose of α-GalCer (150 μg/m^2), similar to the lowest doses used intravenously in Phase I safety studies in humans with solid tumors. Only one dose of α-GalCer was administered to the monkeys before evaluation of AHR, because following activation with α-GalCer, iNKT cells become anergic temporarily (53). 24 hours after challenge, the monkeys were reintubated and assessed for AHR by measuring lung resistance (RL) in response to increasing concentrations of methacholine."}, "iNKT cells [2]": {"test_system": "iNKT cells", "assay": "BAL fluid secondary outcomes after α-GalCer challenge", "format": "in vivo, cynomolgus monkeys", "settings": "monkeys, after α-GalCer vs vehicle", "from_the_text": "as §1"}, "iNKT cells [3]": {"test_system": "iNKT cells", "settings": "cited from earlier work"}}, "note": "“Also recorded” adds a separate entry of the source."}
{"smiles": "CCCCCCCCCCCCCCCCCCCCCCCCCC(=O)N[C@@H](CO[C@H]1O[C@H](CO)[C@H](O)[C@H](O)[C@H]1O)[C@H](O)[C@H](O)CCCCCCCCCCCCCC", "note": "[α-GalCer, α-GalactosylCeramide]", "values": [{"measurement": "percentage change in lung resistance (RL) from baseline compared to vehicle control", "setting": "iNKT cells [1]; combined data of four monkeys, highest dose of methacholine, paired T test p=0.0003", "value": "significantly higher"}, {"measurement": "AHR compared to challenge with vehicle control, monkeys responding", "setting": "iNKT cells [1]; first very low inhaled dose 150 μg/m^2, 24 h after challenge, four monkeys", "value": "three of the four monkeys developed significantly increased AHR"}, {"measurement": "AHR response of monkey B (non-responder to first dose)", "setting": "iNKT cells [1]; higher dose 600 μg/m^2, 24 h after challenge", "value": "developed a significant AHR response"}, {"measurement": "induction of airway hyperreactivity (AHR)", "setting": "iNKT cells [1]; monkeys, α-GalCer challenge in the absence of ozone or allergen", "value": "induced AHR; also recorded: resulted in the development of significant AHR; also recorded: induces airway hyperreactivity"}, {"measurement": "increased IL-4 in the BAL fluid (secondary outcome)", "setting": "iNKT cells [2]", "value": "did not reach statistical significance"}, {"measurement": "increased eosinophils in the BAL fluid (secondary outcome)", "setting": "iNKT cells [2]", "value": "did not reach statistical significance"}, {"measurement": "increased iNKT cells in the BAL fluid (secondary outcome)", "setting": "iNKT cells [2]", "value": "did not reach statistical significance"}, {"measurement": "increased neutrophils in the BAL fluid (secondary outcome)", "setting": "iNKT cells [2]", "value": "did not reach statistical significance"}, {"measurement": "induction of AHR in wildtype / naïve mice", "setting": "iNKT cells [3]; administered into the lungs / intranasally", "value": "causes AHR; also recorded: results in the development of AHR"}, {"measurement": "induction of AHR / effects in iNKT (NKT) cell deficient mice", "setting": "iNKT cells [3]; administered into the lungs", "value": "no effects"}, {"measurement": "induction of AHR in class II−/− mice (lack conventional CD4+ T cells)", "setting": "iNKT cells [3]; without allergen administration", "value": "functioned to induce AHR"}]}
